According to patent publication US20120118197A1, “BUILDING MATERIALS RESISTANT TO ROOT PENETRATION AND METHODS FOR MAKING THE SAME” (LANXESS DEUTSCHLAND GMBH, priority 2008, published 2012):

Tested on: Lupinus albus
Test: Greenhouse root penetration test in bitumen membranes (DIN CEN/TS 14416)
Details: for No. of emerged plants average: 35 seeds planted; for No. of roots grew into bitumen average / No. of roots stopped at bitumen average / Plant height average: six weeks; for No. of roots grew thoughout bitumen average: average of 3 replicates
Method: A greenhouse study was carried out to compare the effectiveness of different herbicides to prevent root penetration in bitumen roof sealing membranes without killing the plant or adversely affecting it.
The herbicides were incorporated into bitumen 160/220 (thickness 4.5-6 mm) during a standard bitumen manufacturing process. The manufacturing process comprised a step of heating the bitumen mixture before a fibreglass grid was incorporated as a reinforcement of the bitumen membrane.
The herbicides Napropamide (N,N-Diethyl-2-(1-naphthyloxy)propanamide, CAS No. (S)-(+) isomer: 41643-36-1) and Prodiamine (2,4-dinitro-N3,N3-dipropyl-6-(trifluoromethyl)-1,3-benzenediamine, CAS No. 29091-21-2) were formulated as oil dispersion with 25% active ingredient. The (R)-2-(4-chlorine-o-tolyloxy)propionic acid ethyl-hexylester (trader name: ‘HERBITECT™’, 2 ethylhexyl-2-(R)-2-(4-chloro-o-tolylory)propionate) may be obtained from Büsscher & Hoffman, Fabrikstrasse 2, A-4470 Enns, Austria and was formulated as oil dispersion with approx. 95% active ingredient.
Resistance of the bitumen against root penetration was evaluated according to the standard test method known in the art as: DIN CEN/TS 14416 ‘Geosynthetische Dichtungsbahnen—Prüfverfahren zur Bestimmung des Widerstandes gegen Wurzeln, Deutsche Fassung CEN/TS14416:2005’. Bitumen membranes containing Napropamide and Prodiamine, respectively were evaluated at active ingredient concentrations of 0.5%, 0.25%, 0.125% and 0.0625% based on raw bitumen. […] Bitumen membranes without incorporated herbicide were used as a control. Three discs with a diameter of 25 cm were punched out of each bitumen membrane and used for the study.
Unglazed, earthenware flowerpots approx. 22 cm high were filled with a soil-mixture [soil low in calcium/TKS1 (3:1)] to 10 cm from the bottom of the pot. Bitumen discs were put on top of the soil layer and the gap between the disc and the pot was sealed with aquarium silicone sealant. The diameter of the discs was approximately that of the internal diameter halfway up the pots. The bitumen discs were covered with approximately 9 cm soil and a plastic watering pipe was insert into the soil of each pot. Thirty five lupine seeds (Lupinus albus) were planted in the soil and covered with about 1 cm of soil. Two pots filled only with soil were used as a control for seed germination and plant growth.
The seeds were growing in a greenhouse under artificial light (14 h photoperiod, 20-22° C., relative humidity 60%). The soil above the bitumen disc was watered with rain water led through the plastic pipe into the pots so that the surface of the bitumen was kept damp. The soil beneath the bitumen discs was kept moist by standing from time to time the pots in water-filled trays. After six weeks the soil of the pots was removed from the roots by gentle running water. The bottom side of bitumen membranes was inspected to see whether any roots have grown through the bitumen, and the upper side was examined to assess the number of roots penetrating the bitumen and the depth of penetration. During the assessments, bitumen discs, roots, and above ground parts of the plants were recorded.

[1] = 0.0625% active ingredient based on raw bitumen
[2] = 0.0625% active ingredient, replicate 1
[3] = 0.0625% active ingredient, replicate 2
[4] = 0.0625% active ingredient, replicate 3
[5] = 0.125% active ingredient based on raw bitumen
[6] = 0.125% active ingredient, replicate 1
[7] = 0.125% active ingredient, replicate 2
[8] = 0.125% active ingredient, replicate 3
[9] = 0.25% active ingredient based on raw bitumen
[10] = 0.25% active ingredient, replicate 1
[11] = 0.25% active ingredient, replicate 2
[12] = 0.25% active ingredient, replicate 3
[13] = 0.5% active ingredient based on raw bitumen
[14] = 0.5% active ingredient, replicate 1
[15] = 0.5% active ingredient, replicate 2
[16] = 0.5% active ingredient, replicate 3
[17] = 0.38% active ingredient based on raw bitumen

Structure (SMILES) | No. of roots grew into bitumen average [1] | No. of roots stopped at bitumen average [1] | No. of roots grew thoughout bitumen average (0.0625% active ingredient) | No. of roots grew thoughout bitumen (3 replicates shown) [2] | No. of roots grew thoughout bitumen (3 replicates shown) [3] | No. of roots grew thoughout bitumen (3 replicates shown) [4] | No. of roots grew into bitumen average [5] | No. of roots stopped at bitumen average [5] | No. of roots grew thoughout bitumen average (0.125% active ingredient) | No. of roots grew thoughout bitumen (3 replicates shown) [6] | No. of roots grew thoughout bitumen (3 replicates shown) [7] | No. of roots grew thoughout bitumen (3 replicates shown) [8] | No. of roots grew into bitumen average [9] | No. of roots stopped at bitumen average [9] | No. of roots grew thoughout bitumen average (0.25% active ingredient) | No. of roots grew thoughout bitumen (3 replicates shown) [10] | No. of roots grew thoughout bitumen (3 replicates shown) [11] | No. of roots grew thoughout bitumen (3 replicates shown) [12] | No. of roots grew into bitumen average [13] | No. of roots stopped at bitumen average [13] | further results
CCCN(CCC)c1c([N+](=O)[O-])cc(C(F)(F)F)c(N)c1[N+](=O)[O-] [Prodiamine, 2,4-dinitro-N3,N3-dipropyl-6-(trifluoromethyl)-1,3-benzenediamine] | approx. >50 | approx. >50 | 20.3 | 27 | 16 | 18 | approx. >50 | approx. >50 | 12.0 | 12 | 18 | 6 | approx. >50 | approx. >50 | 6.7 | 9 | 6 | 5 | approx. >50 | approx. >50 | No. of emerged plants average [1]: 33.7; Plant height average [1]: 33.7 cm; No. of emerged plants average [5]: 34.7; Plant height average [5]: 32.3 cm; No. of emerged plants average [9]: 34.3; Plant height average [9]: 31.0 cm; No. of emerged plants average [13]: 34.3; Plant height average [13]: 34.0 cm; No. of roots grew thoughout bitumen average (0.5% active ingredient): 2.7; No. of roots grew thoughout bitumen (3 replicates shown) [14]: 1; No. of roots grew thoughout bitumen (3 replicates shown) [15]: 3; No. of roots grew thoughout bitumen (3 replicates shown) [16]: 4; Effectiveness to restrict root growth throughout bitumen (compared to Napropamide and the standard product HERBITECT): slightly less effective
CCN(CC)C(=O)C(C)Oc1cccc2ccccc12 (centres unmarked) [Napropamide, N,N-Diethyl-2-(1-naphthyloxy)propanamide] | approx. >50 | approx. >50 | 1.3 | 1 | 1 | 2 | approx. >50 | approx. >50 | 0.7 | 0 | 2 | 0 | 40.0 | approx. >50 | 0.3 | 0 | 0 | 1 | 30.3 | approx. >50 | No. of roots grew thoughout bitumen average (0.5% active ingredient): 0.3; No. of roots grew thoughout bitumen (3 replicates shown) [14]: 1; No. of roots grew thoughout bitumen (3 replicates shown) [15]: 0; No. of roots grew thoughout bitumen (3 replicates shown) [16]: 0; Penetration of upper side of bitumen compared to the untreated bitumen (at 0.5% and 0.25%, respectively): penetrated to less extent; Root elongation through bitumen (at 0.5% and 0.25%, exception in a replicate showing one root penetration): stopped completely; Harm to the remaining plant parts (in vivo): not harmful; Effectiveness to prevent root penetration of bitumen membranes (overall conclusion of the study): highly effective
CCCCC(CC)COC(=O)[C@@H](C)Oc1ccc(Cl)cc1C (stereo partly drawn) [Herbitect, (R)-2-(4-chlorine-o-tolyloxy)propionic acid ethyl-hexylester] |  |  |  |  |  |  |  |  |  |  |  |  |  |  |  |  |  |  |  |  | No. of emerged plants average [17]: 33.0; No. of roots grew into bitumen average [17]: 46.7; No. of roots stopped at bitumen average [17]: approx. >50; Plant height average [17]: 34.0 cm; No. of roots grew thoughout bitumen average (0.38% active ingredient): 0; No. of roots grew thoughout bitumen (3 replicates shown) (0.38% active ingredient, replicate 1): 0; No. of roots grew thoughout bitumen (3 replicates shown) (0.38% active ingredient, replicate 2): 0; No. of roots grew thoughout bitumen (3 replicates shown) (0.38% active ingredient, replicate 3): 0; Penetration of upper side of bitumen compared to the untreated bitumen (at 0.38%): penetrated to less extent; Root penetration throughout bitumen (standard product, 0.38%): without any root penetration
